From article PMC6691788, “Design and synthesis of phthalazine-based compounds as potent anticancer agents with potential antiangiogenic activity via VEGFR-2 inhibition” (Journal of Enzyme Inhibition and Medicinal Chemistry, 2019)
Like-named read-outs stand apart in the source and are kept apart here.

Assays:
VEGFR-2 tyrosine kinase = molecular target: T1, VEGFR-2 tyrosine kinase (Homo sapiens, UniProt P35968); test: In vitro VEGFR-2 tyrosine kinase assay (BPS Bioscience); assay type: biochemical; settings: for IC50: 10 μM ATP/0.2 mg/ml poly-Glu-Tyr; for inhibition at 10 µM: read-out: VEGFR-2 % inhibition, 10 μM concentration
T1 construct: purchased BPS Bioscience 40301
T1 sequence (P35968 20-1356): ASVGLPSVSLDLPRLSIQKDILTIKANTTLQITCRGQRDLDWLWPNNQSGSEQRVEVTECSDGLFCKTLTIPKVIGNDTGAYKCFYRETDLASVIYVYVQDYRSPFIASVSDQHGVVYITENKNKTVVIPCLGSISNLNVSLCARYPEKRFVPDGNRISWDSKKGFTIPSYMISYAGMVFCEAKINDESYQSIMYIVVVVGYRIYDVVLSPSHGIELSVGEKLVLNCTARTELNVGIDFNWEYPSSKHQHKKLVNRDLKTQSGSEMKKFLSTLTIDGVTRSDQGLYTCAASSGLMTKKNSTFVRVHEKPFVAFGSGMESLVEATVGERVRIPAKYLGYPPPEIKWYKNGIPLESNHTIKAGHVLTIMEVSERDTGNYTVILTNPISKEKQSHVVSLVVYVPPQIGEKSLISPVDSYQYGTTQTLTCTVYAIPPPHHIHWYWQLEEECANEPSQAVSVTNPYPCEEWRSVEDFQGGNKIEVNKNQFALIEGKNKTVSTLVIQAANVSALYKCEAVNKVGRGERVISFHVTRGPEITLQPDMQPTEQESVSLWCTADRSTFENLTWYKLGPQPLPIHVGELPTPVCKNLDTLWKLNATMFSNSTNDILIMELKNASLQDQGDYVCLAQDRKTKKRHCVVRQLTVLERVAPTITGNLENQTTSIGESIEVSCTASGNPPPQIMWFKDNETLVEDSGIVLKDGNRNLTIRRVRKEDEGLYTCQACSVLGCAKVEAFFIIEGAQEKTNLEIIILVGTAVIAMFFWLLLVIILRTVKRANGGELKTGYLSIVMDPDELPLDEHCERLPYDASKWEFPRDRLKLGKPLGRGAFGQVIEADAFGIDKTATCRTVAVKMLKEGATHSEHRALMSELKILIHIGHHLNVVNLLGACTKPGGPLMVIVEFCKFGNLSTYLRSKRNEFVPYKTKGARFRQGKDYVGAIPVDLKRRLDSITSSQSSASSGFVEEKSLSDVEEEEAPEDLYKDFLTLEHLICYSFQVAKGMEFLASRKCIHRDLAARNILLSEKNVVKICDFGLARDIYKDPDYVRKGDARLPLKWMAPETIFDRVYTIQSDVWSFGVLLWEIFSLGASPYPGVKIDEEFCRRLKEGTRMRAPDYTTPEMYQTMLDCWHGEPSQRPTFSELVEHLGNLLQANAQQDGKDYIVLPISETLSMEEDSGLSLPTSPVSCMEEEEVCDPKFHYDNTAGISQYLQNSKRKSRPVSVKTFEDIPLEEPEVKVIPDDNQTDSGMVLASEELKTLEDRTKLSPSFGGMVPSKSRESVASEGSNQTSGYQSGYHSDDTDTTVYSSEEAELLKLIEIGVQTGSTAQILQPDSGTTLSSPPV
Description: The VEGFR tyrosine kinase assays were performed at BPS Bioscience (www.bpsbioscience.com). All the synthesised compounds representing the six series were evaluated for their ability to inhibit VEGFR-2 tyrosine kinase at single dose of 10 µM.
The VEGFR tyrosine kinase activity at single dose concentration of 10 μM was carried out by BPS Bioscience (www.bpsbioscience.com). VEGFR (BPS#40301) served as the enzyme source and Poly (Glu, Tyr) sodium salt, (4:1, Glu:Tyr) (Sigma#P7244) served as the standardized substrate & Kinase-Glo Plus Luminescence kinase assay kit (Promega#V3772). The IC50 determination was carried out where quality control testing is routinely performed on each of the targets to insure compliance to acceptable standards. ^33P-ATP was purchased from Perkin Elmer and ADP-Glo^TM was purchased from Promega. All other materials were of standard laboratory grade.
The VEGFR tyrosine kinase activity was performed using Kinase-Glo Plus luminescence kinase assay kit (Promega). It measures kinase activity by quantitating the amount of ATP remaining in solution following a kinase reaction. The luminescent signal from the assay is correlated with the amount of ATP present and is inversely correlated with the amount of kinase activity. The compounds were diluted to 100 μM in 10% DMSO and […] of the dilution was added to a […] reaction so that the final concentration of DMSO is 1% in all of reactions. All of the enzymatic reactions were conducted at 30 °C for 40 min. The 50 μl reaction mixture contains […], pH 7.4, […], 0.1 mg/ml BSA, 0.2 mg/ml Poly (Glu, Tyr) substrate, 10 μM ATP and VEGFR. After the enzymatic reaction, […] of Kinase-GloPlus Luminescence kinase assay solution (Promega) was added to each reaction and incubate the plate for 5 min at room temperature. Luminescence signal was measured using a BioTek Synergy 2 microplate reader. The protein kinase assays used to determine IC50 value were performed using ADP-GloTM assay kit from Promega which measures the generation of ADP by the protein kinase. Generation of ADP by the protein kinase reaction leads to an increase in luminescence signal in the presence of ADP-GloTM assay kit. The assay was started by incubating the reaction mixture in a 96-well plate at 30 °C for 30 min. After the 30 min incubation period, the assay was terminated by the addition of […] of ADP-GloTM Reagent (Promega). The 96 well plate was shaken and then incubated for 40 min at ambient temperature. […] of Kinase detection reagent was added, the 96-well reaction plate was then read using the ADP-Glo Luminescences Protocol on a GloMax plate reader (Promega: Catalog #E7031). Blank control was set up that included all the assay components except the addition of appropriate substrate (replace with equal volume of kinase assay buffer). The corrected activity for each protein kinase target was determined by removing the blank control value.
VEGFR activity assays were performed in duplicate at each concentration. The luminescence data were analyzed using the computer software, Graphpad Prism. The difference between luminescence intensities in the absence of VEGFR (Lut) and in the presence of VEGFR (Luc) was defined as 100% activity (Lut - Luc). […] IC50 determination for inhibitor against VEGFR was estimated by generating a graph of log inhibitor vs normalized response with variable using the Prism software.

HUVEC = test: In vitro HUVEC anti-proliferative assay (alamarBlue); assay type: cell-based, human; settings: HUVEC proliferation, single dose 10 µM, 72 hours; for inhibition at 10 µM: Homo sapiens, read-out: % Cell inhibition
Description: The assay was performed at single dose concentration of 10 µM, where HUVEC umbilical vein endothelial cells, human (Life Technologies # C-003-5C) served as the cells’ source, in Medium 200 (Life Technologies # M-200-500), with large vessel endothelial supplement (LVES) (Life Technologies # A14608-01) and Pen-step (Hyclone # SV30010). AlamarBlue (Life Technologies # DAL1025) was used as the fluorescent reagent.
HUVEC cells were cultured in Medium 200 with 2% LVES and 1% Pen-strep. To perform the proliferation assay, HUVEC cells were seeded at 5000 cells/ 50µl /well in a 96-well black clear-bottom tissue culture plate. Cells were incubated at 37°C and 5% CO2 overnight to allow them to recover and reattach.
Next day cells were treated with test compounds for 72 hours. After treatment, cell proliferation was measured by Fluorescent quantitation of alamarBlue reagent. The alamarBlue assay incorporates a fluorometric/colorimetric growth indicator based on detection of metabolic activity. Specifically, resazurin, the active ingredient in the alamarBlue reagent, is blue in color and virtually non-fluorescent. Upon entering cells, resazurin is reduced to resorufin, a compound that is red in color and highly fluorescent. Continued cell growth maintains a reduced environment, therefore increasing the overall fluorescence and color of the media surrounding cells. […] To perform the alamarBlue assay, 10 µl of alamarBlue reagent was added to each well and the plate was incubated at 37°C for an additional 2 hours. Fluorescence intensity was measured at an excitation of 530 nm and an emission of 590 nm using a BioTek Synergy^TM 2 microplate reader.
Cell proliferation assays were performed in triplicate at each concentration. The fluorescent intensity data were analyzed using the computer software, Graphpad Prism. In the absence of the compound, the fluorescent intensity (Ft) in each data set was defined as 100%. In the absence of cells, the fluorescent intensity (Fb) in each data set was defined as 0%. The percent cell in the presence of each compound was calculated according to the following equation: %cell = (F-Fb)/(Ft-Fb), where F= the fluorescent intensity in the presence of the compound, Fb= the fluorescent intensity in the absence of cells, and Ft = the fluorescent intensity in the absence of the compound.

HCT-116 = test: In vitro cytotoxic activity, SRB assay; assay type: cell-based; settings: Homo sapiens; HCT-116, 48h
Description: (§1) In addition, compounds (12a, 12b, 12c, 16b, 16c and 17b) were evaluated against a third cell line (HepG-2) These first two cell lines were selected based on the sensitivity of the previously NCI-tested derivatives towards them amongst the 60 NCI panel. The growth inhibition is expressed as the median growth inhibitory concentration (IC50) which corresponds to the concentration required for 50% inhibition of cell viability and are provided in (Table S6 in supplementary material).
(§2) 5,000 cells in fresh medium were seeded in 96-well microlitre plates and left to attach for 24h. Cells were incubated with the tested compounds at concentration range from 0,1,2.5,5,10 µg/ml and incubation was continued for48h. After 48h treatment,the cells were fixed with 50µl cold 50% trichloroacetic acid (TCA )for 1h at 4 °C. Wells were then washed 5 times with water and stained for 30 min at room temperature with 50µl of 0.4%SRB dissolved in 1% acetic acid. The wells were then washed 4 times with 1% acetic acid. The plates were air dried and the dye was solubilized with 100µl/well of 10mM tris base (pH 10.5) for 5min on a shaker (Orbital Shaker OS 20,Boeco,Germany) at 1600 rpm. The optical density (O.D.)of each well was measured spectrophotometrically at 564 nm with an enzyme linked immunosorbent assay( ELIZA) micraplate reader (Tecan Sunrise,Austria).The mean back ground absorbance was subtracted automatically and mean values for each drug concentration was calculated.
(§3) The percentage of cell survival was calculated as follows:
(§4) Survival fraction =O.D.(treated cells)/O.D.(control cells)
(§5) The IC50 value (the concentration required to produce 50% inhibition of cell growth) was calculated using sigmodial dose response curve-fitting models (GraphPad,Prizm software incorporated). Each concentration was repeated 3 times.

HepG-2 = test: In vitro cytotoxic activity, SRB assay; assay type: cell-based; settings: Homo sapiens, HepG2; HepG-2, 48h
Description: as §1, §2, §3, §4, §5

MCF-7 = test: In vitro cytotoxic activity, SRB assay; assay type: cell-based; settings: Homo sapiens, MCF7; MCF-7, 48h
Description: as §1, §2, §3, §4, §5

VEGFR-2 = settings: cited from earlier work
VEGFR-3 = tested on: VEGFR-3; design: method as in PMID 24565910; settings: cited from earlier work

IC50 (VEGFR-2 tyrosine kinase) [µM]	inhibition at 10 µM (VEGFR-2 tyrosine kinase) [%]	melting point [°C]	Structure (SMILES)	% Cell growth (HUVEC) [%]	inhibition at 10 µM (HUVEC) [%]	IC50 (HCT-116) [µM]	IC50 (HepG-2) [µM]	IC50 (MCF-7) [µM]	IC50 (VEGFR-2; Figure 1, known VEGFR-2 kinase inhibitors, read-out: IC50) [µM]	IC50 (VEGFR-2; read-out: IC50 VEGFR-2) [µM]	IC50 (VEGFR-3) [µM]
4.4	70	236 to 238	O=C(Nc1ccc(Cl)cc1)Nc1ccc(Nc2nnc(Cl)c3ccccc23)cc1 [Compound 12b, 1–(4-Chlorophenyl)-3–(4-(4-chlorophthalazin-1-ylamino)phenyl)urea]	20.17	79.8	174	174	155			
			c1ccc(Cc2cnc(N3CCN(c4ncnc5ccccc45)CC3)nc2)cc1 [(VI)]						0.0034		
			CNC(=O)c1cc(COc2nnc(Nc3ccc(Cl)cc3)c3ccoc23)ccn1 [Telatinib (V), telatinib]							0.006	0.004
2.7	78	187 to 189	O=C(Nc1ccc(Nc2nnc(Cl)c3ccccc23)cc1)Nc1ccc(Cl)c(C(F)(F)F)c1 [Compound 12c, 1–(4-Chloro-3-(trifluoromethyl)phenyl)-3–(4-(4-chlorophthalazin-1-ylamino)phenyl)-urea]	27.42	72.6	724	> 1000	> 1000			
